Laboratory results taken from patent publication US20240058460A1, “METHODS AND COMPOUNDS FOR MODULATING HUNTINGTON'S DISEASE” (Design Therapeutics, Inc., priority 2022, published 2024).

Assays:
[1] = tested on: human HTT T allele (SNP rs362331C/T) mRNA in GM09197 fibroblasts; assay: HTT mRNA, allele-specific RT-PCR in GM09197 fibroblasts, T allele; assay type: cell-based; conditions: for IC50: Homo sapiens, Fibroblast, 48 hr, T allele HTT mRNA normalized to GAPDH, relative to vehicle; for Gm09197 Emin 48 hr T Allele (%): lowest % HTT observed at 0.5 nM to 1000 nM compound
Experimental: (§1) Molecular Biology Toolkit: • qPCR primer probe sets: • RNA input normalization was assessed utilizing human glyceraldehyde 3-phosphate dehydrogenase (hGAPDH) TaqMan assay (ThermoFisher cat #4351370) or Human Cyclophillin ([…]) TaqMan assay (ThermoFisher cat #4351372) • Total HTT detection was assessed utilizing human Htt TaqMan assay (ThermoFisher cat #4331182) • Allele-specific detection of human HTT expression in HD cells containing the SNP rs362331C/T (Exon 50): for each assay, allele-specific probes to detect the SNP variant contained locked nucleic acid bases to improve allele discrimination, as compared to unmodified DNA probes. • 362331-F (331 forward primer) • 362331-R (331 reverse primer) • 362331-C probe: TCC CTC ATC+C+AC TGT GT • 362331-T probe: CTC+A+T+C+T+A+C TGT GT • qPCR was performed using Agpath ID one-step reverse transcriptase polymerase chain reaction (RT-PCR) reagent
(§2) Screening of HD molecules methods: GM09197 and/or GM04022 fibroblasts were cultured in T175 flasks incubated at 37° C. and 5% CO2. Once confluency was reached, the media was removed, the cells were washed with 1×PBS, and cells were dissociated using TrypLE™ Express Enzyme. Media was added to the enzyme and collected into a 15-mL conical tube and centrifuged at 500×g for 5 minutes to pellet the cells. Media and enzyme were aspirated using a serological pipette. Cells were resuspended in fresh media and counted using a Countess 3 Automated Cell Counter. Cells were plated at a density of 15,000 cells/well in a tissue culture-treated polystyrene 96-well dish and incubated at 37° C. and 5% CO2 overnight. The next day, media was removed using an 8-channel aspirator. 200 μL media/well are added back into the plate. The molecules are formulated to 1 mM and are dispensed using a Multidrop™ Pico 8 Digital Dispenser. After a 48-hour incubation with compounds, media was removed from plates, cells were washed with 1×PBS, and cells were lysed in 40 μL per well guanidinium thiocyanate buffer. RNA was isolated and purified in […] glass fiber column plates using chaotropic salts. Human mtHTT, wtHTT, and GAPDH mRNA were measured via RT-PCR using the ThermoFisher QuantStudio™ 7 Flex System in 384-well format. Results of HTT levels were normalized to GAPDH mRNA levels. Normalized HTT mRNA levels were expressed relative to vehicle-treated samples to assess fold change after molecule treatment.
(§3) Emin for each compound is the lowest % HTT concentration observed within a compound concentration of 0.5 nM to 1000 nM.

[2] = tested on: human HTT C allele (SNP rs362331C/T) mRNA in GM09197 fibroblasts; assay: HTT mRNA, allele-specific RT-PCR in GM09197 fibroblasts, C allele; assay type: cell-based; conditions: for GM 09197 E min 48 Hr C Allele (%): lowest % HTT observed at 0.5 nM to 1000 nM compound; for IC50: Homo sapiens, Fibroblast, 48 hr, C allele HTT mRNA normalized to GAPDH, relative to vehicle
Experimental: as §1, §2, §3

Compound | IC50 [1] [nM] | Gm09197 Emin 48 hr T Allele (%) [1] | GM 09197 E min 48 Hr C Allele (%) [2] | IC50 [2] [nM]
CCS(=O)(=O)Nc1ccc(Oc2ccc(F)cc2F)c(-c2cn(C)c(=O)c3[nH]c(C(=O)Nc4ccc(OCCOCCOCCOCCOCCOCCOCCOCCOCCNC(=O)c5cc(NC(=O)c6nc(NC(=O)[C@H](N)CCNC(=O)c7cc(NC(=O)c8nc(NC(=O)CCNC(=O)c9cc(NC(=O)c%10nccn%10C)cn9C)cn8C)cn7C)cn6C)cn5C)cc4)cc23)c1 [Compound A-21] | > 1000 | A (A>90%) | A (A>90%) | > 1000
CC(=O)Nc1c(F)cc(C(=O)NC2CCC(O)CC2)cc1O[C@@H](C)c1cccc(OCCOCCOCCOCCOCCOCCOCCOCCOCCOCCOCCOCCOCCOCCOCCOCCNC(=O)CCNC(=O)c2nc(NC(=O)c3cc(NC(=O)CCNC(=O)c4nc(NC(=O)CCCNC(=O)c5cc(NC(=O)c6nc(NC(=O)CCNC(=O)c7cc(NC(=O)c8nccn8C)cn7C)cn6C)cn5C)cn4C)cn3C)cn2C)c1 (stereo partly shown) [Compound A-31] | > 1000 | – | – | > 1000
CC(=O)Nc1c(F)cc(C(=O)N[C@H]2CC[C@H](O)CC2)cc1O[C@@H](C)c1cccc(C(=O)NCCOCCOCCOCCOCCOCCOCCOCCOCCOCCOCCOCCOCCOCCOCCOCCNC(=O)CCNC(=O)c2nc(NC(=O)c3cc(NC(=O)CCNC(=O)c4nc(NC(=O)CCCNC(=O)c5cc(NC(=O)c6nc(NC(=O)CCNC(=O)c7cc(NC(=O)c8nccn8C)cn7C)cn6C)cn5C)cn4C)cn3C)cn2C)c1 [Compound A-32] | > 1000 | – | – | > 1000
Cc1sc2c(c1C)C(c1ccc(Cl)cc1)=N[C@@H](CC(=O)Nc1ccc(OCCOCCOCCOCCOCCOCCOCCOCCOCCNC(=O)c3cc(NC(=O)c4nc(NC(=O)[C@H](N)CCNC(=O)c5cc(NC(=O)c6nc(NC(=O)CCNC(=O)c7cc(NC(=O)c8nccn8C)cn7C)cn6C)cn5C)cn4C)cn3C)cc1)c1nnc(C)n1-2 [Compound A-35] | > 1000 | – | A (A>90%) | > 1000
CCS(=O)(=O)Nc1ccc(Oc2ccc(F)cc2F)c(-c2cn(C)c(=O)c3[nH]c(C(=O)Nc4ccc(OCCOCCOCCOCCOCCOCCOCCOCCOCCOCCOCCOCCOCCOCCOCCOCCNC(=O)c5cc(NC(=O)c6nc(NC(=O)[C@H](N)CCNC(=O)c7cc(NC(=O)c8nc(NC(=O)CCNC(=O)c9cc(NC(=O)c%10nccn%10C)cn9C)cn8C)cn7C)cn6C)cn5C)cc4)cc23)c1 [Compound A-36] | > 1000 | A (A>90%) | A (A>90%) | > 1000
Cc1sc2c(c1C)C(c1ccc(Cl)cc1)=N[C@@H](CC(=O)Nc1ccc(OCCOCCOCCOCCOCCOCCOCCOCCOCCOCCOCCOCCOCCOCCOCCOCCNC(=O)c3cc(NC(=O)c4nc(NC(=O)c5cc(NC(=O)[C@@H](N)CCNC(=O)c6nc(NC(=O)CCNC(=O)c7cc(NC(=O)c8nccn8C)cn7C)cn6C)cn5C)cn4C)cn3C)cc1)c1nnc(C)n1-2 [Compound A-38] | > 1000 | A (A>90%) | A (A>90%) | > 1000
CCS(=O)(=O)Nc1ccc(Oc2ccc(F)cc2F)c(-c2cn(C)c(=O)c3[nH]c(C(=O)Nc4ccc(OCCOCCOCCOCCOCCOCCOCCOCCOCCNC(=O)c5cc(NC(=O)c6nc(NC(=O)c7cc(NC(=O)[C@@H](N)CCNC(=O)c8nc(NC(=O)CCNC(=O)c9cc(NC(=O)c%10nccn%10C)cn9C)cn8C)cn7C)cn6C)cn5C)cc4)cc23)c1 [Compound A-39] | > 1000 | – | – | > 1000
CCS(=O)(=O)Nc1ccc(Oc2ccc(F)cc2F)c(-c2cn(C)c(=O)c3[nH]c(C(=O)Nc4ccc(OCCOCCOCCOCCOCCOCCOCCOCCOCCOCCOCCOCCOCCOCCOCCOCCNC(=O)c5cc(NC(=O)c6nc(NC(=O)c7cc(NC(=O)[C@@H](N)CCNC(=O)c8nc(NC(=O)CCNC(=O)c9cc(NC(=O)c%10nccn%10C)cn9C)cn8C)cn7C)cn6C)cn5C)cc4)cc23)c1 [Compound A-40] | > 1000 | A (A>90%) | A (A>90%) | > 1000
Cc1sc2c(c1C)C(c1ccc(Cl)cc1)=N[C@H](CC(=O)Nc1ccc(OCCOCCOCCOCCOCCOCCOCCOCCOCCOCCOCCOCCOCCOCCOCCOCCNC(=O)CCNC(=O)c3nc(NC(=O)c4cc(NC(=O)CCNC(=O)c5nc(NC(=O)CCCNC(=O)c6cc(NC(=O)c7nc(NC(=O)CCNC(=O)c8cc(NC(=O)c9nccn9C)cn8C)cn7C)cn6C)cn5C)cn4C)cn3C)cc1)c1nnc(C)n1-2 [Compound A-45] | > 1000 | C (C<80%) | C (C<80%) | > 1000
Cn1cc(NC(=O)c2nc(NC(=O)CCNC(=O)c3cc(NC(=O)c4nccn4C)cn3C)cn2C)cc1C(=O)NCCCC(=O)Nc1cn(C)c(C(=O)NCCC(=O)Nc2cc(C(=O)Nc3cn(C)c(C(=O)NCCC(=O)NCCOCCOCCOCCOCCOCCOCCOCCOCCN4C[C@H](Nc5cnn(C)c(=O)c5Br)C[C@H](c5ccccc5)C4)n3)n(C)c2)n1 [Compound A-48] | > 1000 | A (A>90%) | A (A>90%) | > 1000
Cn1cc(NC(=O)c2nc(NC(=O)CCNC(=O)c3cc(NC(=O)c4nccn4C)cn3C)cn2C)cc1C(=O)NCCCC(=O)Nc1cn(C)c(C(=O)NCCC(=O)Nc2cc(C(=O)Nc3cn(C)c(C(=O)NCCC(=O)NCCOCCOCCOCCOCCOCCOCCOCCOCCOCCOCCOCCOCCOCCOCCOCCN4C[C@H](Nc5cnn(C)c(=O)c5Br)C[C@H](c5ccccc5)C4)n3)n(C)c2)n1 [Compound A-49] | > 1000 | A (A>90%) | A (A>90%) | > 1000
Cc1noc(C)c1-c1ccc2c(c1)nc(CCc1ccc(OCCOCCOCCOCCOCCOCCOCCOCCOCCNC(=O)CCNC(=O)c3nc(NC(=O)c4cc(NC(=O)CCNC(=O)c5nc(NC(=O)CCCNC(=O)c6cc(NC(=O)c7nc(NC(=O)CCNC(=O)c8cc(NC(=O)c9nccn9C)cn8C)cn7C)cn6C)cn5C)cn4C)cn3C)c(Cl)c1)n2C[C@H](C)N1CCOCC1 [Compound A-53] | > 1000 | – | A (A>90%) | > 1000
Cc1noc(C)c1-c1ccc2c(c1)nc(CCc1ccc(OCCOCCOCCOCCOCCOCCOCCOCCOCCOCCOCCOCCOCCOCCOCCOCCNC(=O)CCNC(=O)c3nc(NC(=O)c4cc(NC(=O)CCNC(=O)c5nc(NC(=O)CCCNC(=O)c6cc(NC(=O)c7nc(NC(=O)CCNC(=O)c8cc(NC(=O)c9nccn9C)cn8C)cn7C)cn6C)cn5C)cn4C)cn3C)c(Cl)c1)n2C[C@H](C)N1CCOCC1 [Compound A-54] | > 1000 | – | – | > 1000
CCNC(=O)c1cc2c(-c3cc(S(C)(=O)=O)ccc3Oc3ccc(OCCOCCOCCOCCOCCNC(=O)CCNC(=O)c4nc(NC(=O)c5cc(NC(=O)CCNC(=O)c6nc(NC(=O)CCCNC(=O)c7cc(NC(=O)c8nc(NC(=O)CCNC(=O)c9cc(NC(=O)c%10nccn%10C)cn9C)cn8C)cn7C)cn6C)cn5C)cn4C)cc3F)cn(C)c(=O)c2[nH]1 [Compound A-55] | > 1000 | A (A>90%) | A (A>90%) | > 1000
CC(=O)N1c2ccc(-c3ccn(CCOCCOCCOCCOCCOCCOCCOCCOCCOCCOCCOCCOCCOCCOCCOCCNC(=O)CCNC(=O)c4nc(NC(=O)c5cc(NC(=O)CCNC(=O)c6nc(NC(=O)CCCNC(=O)c7cc(NC(=O)c8nc(NC(=O)CCNC(=O)c9cc(NC(=O)c%10nccn%10C)cn9C)cn8C)cn7C)cn6C)cn5C)cn4C)n3)cc2[C@H](Nc2ccc(C#N)cc2)C[C@@H]1C [Compound A-56] | 104 | C (C<80%) | C (C<80%) | > 1000
CC(=O)N1c2ccc(-c3ccn(-c4ccc(OCCOCCOCCOCCOCCOCCOCCOCCOCCOCCOCCOCCOCCOCCOCCOCCNC(=O)CCNC(=O)c5nc(NC(=O)c6cc(NC(=O)CCNC(=O)c7nc(NC(=O)CCCNC(=O)c8cc(NC(=O)c9nc(NC(=O)CCNC(=O)c%10cc(NC(=O)c%11nccn%11C)cn%10C)cn9C)cn8C)cn7C)cn6C)cn5C)cc4)n3)cc2[C@H](Nc2ccc(C#N)cc2)C[C@@H]1C [Compound A-58] | > 1000 | – | – | > 1000
